Source: PMC7613515, “Reading and erasing of the phosphonium analogue of trimethyllysine by epigenetic proteins” (Communications Chemistry, 2022)
“Also recorded” adds a separate entry of the source.

Legend:
KDM4DJmjC (M1–L358) = experiment: MALDI-TOF demethylation assay, KDM4DJmjC; type: biochemical, human; conditions: KDM4DJmjC 2.4 µM, peptide 5.0 µM, 1 hr, duplicates
Procedure: A Bruker Daltonics MALDI-TOF/TOF AutoflexSpeed machine and Bruker MTP 384 target plates (polished steel BC, Part: 8280781) were used. The machine was controlled using Flex control (v. 3.4 build 135.10) and Compass for flex series (v. 1.4) software. Measurements were in the positive ion mode with the reflectron mode enabled. Incubations employed ProxiPlate-384™ (Perkin Elmer) plates into which was pipetted a solution of [H3_1-15K9me3 (10.0 µM), (+)-sodium L-ascorbate (1.0 mM), (NH4)2Fe(II)(SO4)2 (100 µM), di-sodium 2-oxoglutarate (200 µM) in buffer (HEPES (50 mM)) in MilliQ (pH 7.5)] (5.0 µL) using ClipTip™ (Thermo Scientific™) pipette tips and E1-ClipTip™ (Thermo Scientific™). The enzyme solution [KDM4EJmjC (1.0 µM) in HEPES (50 mM)] (5.0 µL) was added to initiate reaction at 37 °C. Reactions were quenched with formic acid in water (2%, 5.0 µL).

KDM4EJmjC (M1–Q337) = molecular target: T1, KDM4EJmjC (M1–Q337) (Homo sapiens, UniProt B2RXH2); experiment: FDH coupled demethylation assay (formaldehyde release), KDM4EJmjC; type: biochemical; conditions: KDM4EJmjC 0–10 µM, H3KP9me3 10 µM; n = 3 or 4
T1 construct: We chose human KDM4EJmjC (M1–Q337); made in house
T1 sequence (B2RXH2 1-337): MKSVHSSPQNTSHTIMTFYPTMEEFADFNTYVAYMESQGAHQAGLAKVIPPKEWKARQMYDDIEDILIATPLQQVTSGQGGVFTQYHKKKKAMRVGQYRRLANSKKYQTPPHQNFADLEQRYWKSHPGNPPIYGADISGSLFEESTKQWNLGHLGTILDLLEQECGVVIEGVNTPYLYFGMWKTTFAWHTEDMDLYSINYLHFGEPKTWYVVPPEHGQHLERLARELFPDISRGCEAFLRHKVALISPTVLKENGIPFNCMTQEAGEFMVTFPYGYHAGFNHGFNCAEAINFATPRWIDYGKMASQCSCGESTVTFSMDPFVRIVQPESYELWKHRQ
Procedure: To test whether formaldehyde is generated by H3KP9me3 demethylation, a formaldehyde dehydrogenase (FDH) coupled assay was employed (Supplementary Fig. 19a)[34],[37]. […]
measurement of the formation of NADH. a FDH enzyme coupled to KDM4E JmjC demethylation assay measuring the levels of […]
(0–50 µM). c Michaelis-Menten analysis. Standard conditions: FDH (1.0 µM), Asc (1.0 mM), Fe(II) (50 µM), 2OG (200 µM) and NAD+ (250 µM). Errors are standard deviations of the mean (n = 2 or 3).
(1 picture or pasted object on this page, not shown here)
Supplementary Fig. 20 FDH activity assay of KDM4E JmjC (0–10 µM) catalysed demethylation of H3K P9me 3 (10 µM) […]
Standard conditions: FDH (1.0 µM), Ascorbate (1.0 mM), Fe(II) (50 µM), 2OG (200 µM) and NAD + (250 µM). Errors are standard deviations of the mean (n = 3 or 4).

KDM3AJmjC (T515–S1317) = experiment: MALDI-TOF demethylation assay, KDM3AJmjC; type: biochemical; conditions: 1 hr
Excerpt: To investigate whether H3KP9me3 can be demethylated by other human KDM4 subfamily members, recombinant KDM4AJmjC (M1–L359) and KDM4DJmjC (M1–L358) were produced in E. coli following an adaption of literature procedures[38],[39]. […] To test the ability of KDM3 and KDM7 subfamily representatives to demethylate H3KP9me2 or H3KP9me3, KDM3AJmjC (T515–S1317) and KDM7BJmjC (M37–N483) were produced using baculovirus/sf9 and E. coli expression systems, respectively[40],[41]. The synthesis of a histone H3 mimic peptide H3KP9me2 substrate is challenging as the tri-alkylated phosphine group is susceptible to oxidation during synthesis of the protected amino acid and during SPPS requiring oxygen-free conditions. Thus, to investigate if KDM3AJmjC or KDM7BJmjC can catalyse demethylation of H3KP9me2, an appropriate H3KP9me2 substrate was prepared in situ from H3KP9me3 using KDM4EJmjC (2.0 µM), in the presence of KDM3AJmjC (2.0 µM) or KDM7BJmjC (2.0 µM).
A Bruker Daltonics MALDI-TOF/TOF AutoflexSpeed machine and Bruker MTP 384 target plates (polished steel BC, Part: 8280781) were used. The machine was controlled using Flex control (v. 3.4 build 135.10) and Compass for flex series (v. 1.4) software. Measurements were in the positive ion mode with the reflectron mode enabled. […] Samples were then analysed by MALDI-TOF. […]

## ARTKQTAR(KPme3)STGGKA [H3KP9me3, histone H3 residues 1–15 with trimethylphosphonium lysine analogue at position 9]
KDM4DJmjC (M1–L358)
  demethylation: substantial turnover to H3KP9me2
KDM4EJmjC (M1–Q337)
  formaldehyde release: in an enzyme dependent manner that releases formaldehyde; also recorded: time-dependent increase in formaldehyde
KDM3AJmjC (T515–S1317); KDM3AJmjC 2.0 µM plus KDM4EJmjC 2.0 µM, peptide 5.0 µM
  demethylation in combination with KDM4EJmjC: produced H3KP9me2 (due to KDM4EJmjC catalysis), but did not result in masses consistent with H3KP9me1 or H3KP9
KDM3AJmjC (T515–S1317); KDM3AJmjC 2.0 µM, H3KP9me2 prepared in situ with KDM4EJmjC
  demethylation: do not catalyse demethylation of H3K9me3 (as anticipated) or H3KP9me3
